Patent US20120165325A1, “Stable forms of N-(2,6-Dimethyl-4-morpholin-4-yl-phenyl)-3,3-dimethyl-butyramide” (H. Lundbeck A/S, priority 2009, published 2012)
Each block holds one molecule with its values, some of them ahead of it.

What was measured:
Male Wistar rats [1] = test: Amphetamine challenge: antagonism of d-amphetamine induced hyperactivity; format: in vivo; settings: rat; s.c. 30 min before d-amphetamine sulphate 0.5 mg/kg; motility over 2 hours; std. dev. in brackets
Protocol: Subjects. Male Wistar rats (Taconic, Denmark) weighing 170-240 g are used. The animals were housed under a 12-hr light/dark cycle under controlled conditions for regular in-door temperature (21±2° C.) and humidity (55±5%) with food and tap water available ad libitum. Eight rats were used at each dose level and in the parallel control group receiving the vehicle to the test compound plus d-amphetamine and the group receiving vehicle injections only.
Experimental procedure. The experiment was made in normal light conditions in an undisturbed room. The test substance was injected 30 min before s.c. before the injection of d-amphetamine sulphate (0.5 mg/kg). Immediately after injection of d-amphetamine, the rats were placed individually in the test cages that were placed in a U-frame, equipped with 4 infrared light sources and photocells. The light beams crossed the cage 4 cm above the cage floor. Recording of a motility count required interruption of adjacent light beams, thus avoiding counts induced by stationary movements of the rat. Motility (counts) was recorded for a period of 2 hours. The mean motility induced by vehicle (saline) treatment in the absence of d-amphetamine was used as baseline. The 100 percent effect of d-amphetamine was accordingly calculated to be total motility counts minus baseline. The response in groups receiving test compound was thus determined by the total motility counts minus baseline, expressed in percent of the similar result recorded in the parallel amphetamine control group. The percent responses were converted to percent inhibition from which ED50 values were calculated by means of log-probit analyses. In a parallel set of data, the potential sedative properties (motility inhibition) of the test compounds were evaluated using essentially the same procedure with the exception of not administering d-amphetamine-sulphate at the initiation of locomotor assessment.

Male Wistar rats [2] = test: Motility inhibition (potential sedative properties, without d-amphetamine); format: in vivo; settings: rat, std. dev. in brackets
Description: Subjects. Male Wistar rats (Taconic, Denmark) weighing 170-240 g are used.
Experimental procedure. […] Recording of a motility count required interruption of adjacent light beams, thus avoiding counts induced by stationary movements of the rat.

Male NMRI mice [3] = test: Inhibition of baseline motility in vehicle-pretreated, vehicle-challenged mice; format: in vivo, mouse; settings: 30 min test
Protocol: (§1) Subjects. Male NMRI mice (Charles River) weighing approx. 35 g were used. The animals were housed 6 mice pr cage in a 12-hr light/dark cycle under controlled conditions for regular in-door temperature (21±2° C.) and humidity (55±5%) with food and tap water available ad libitum. 12 mice were used pr experimental group.
Experimental procedure. All mice were pre-treated once daily for five days with either d-amphetamine sulphate (2.5 mg/kg s.c.) or saline (10 ml/kg). For the 17 days between the last day of pre-treatment and the test day, the animals were kept in their home cage receiving the standard care as described above. […] The recording of a motility counted requires interruption of adjacent light beams, thereby avoiding counts induced by stationary movements of the mice. […]
Data analyses. […] That is, the response in amphetamine-sensitized groups receiving test compound was thus determined as the sensitised response minus the baseline motility, expressed in percent of the similar result recorded in the sensitized amphetamine response group. […] Similarly, an ED50 for inhibiting baseline motility was calculated by expressed the motility response in vehicle-pretreated, vehicle-challenged, drug-treated animals relative to the baseline motility response. A therapeutic index value can subsequently be calculated by dividing the first ED50 by the second.

Male NMRI mice [4] = test: Amphetamine sensitisation: inhibition of the sensitised behavioural response to amphetamine; format: in vivo, mouse; settings: amphetamine-pretreated mice, s.c. 30 min before D-amphetamine challenge 1.25 mg/kg s.c., 30 min test, S.D. in brackets
Protocol: Subjects. […] The animals were housed 6 mice pr cage in a 12-hr light/dark cycle under controlled conditions for regular in-door temperature (21±2° C.) and humidity (55±5%) with food and tap water available ad libitum.
Experimental procedure. […] 5×8 infrared light sources and photocells interspaced by 4 cm monitor the locomotor activity.
Administration of compounds.
Data analyses. […] A therapeutic index value can subsequently be calculated by dividing the first ED50 by the second.

Male NMRI mice [5] = test: Forced swim test; format: in vivo, mouse; settings: 30 min before test, last 3 min of 6 min swim, vehicle = 100
Protocol: as §1, with “weighing 23-25” for “weighing approx. 35”, “The mice” for “The animals”, “were kept 8” for “were housed 6”, “libitum. 8” for “libitum. 12”
Experimental procedure. The mice were placed in 2000 ml beaker containing 1200 ml of tempered water (25° C.) and left to swim for 6 min. The performance of the mice was video recorded, digitalized and analysed by means of a digital analysis system (Bioobserve). The time spent immobile for the last 3 min. of the test session was quantified for each mouse.
Treatment. 30 min. before the test, mice were treated s.c. with N-(2,6-dimethyl-4-morpholin-4-yl-phenyl)-3,3-dimethyl-butyramide or vehicle (10-%-2-OH-propyl-cyclodextrin, 10 ml/kg). In addition as positive control, imipramine-HCl (40 mg/kg) and a saline control (10 ml/kg) was included.
Analyses. The time spent immobile was statistically compared across the experimental groups against the relevant control group by means of one-way analysis of variance. A post-hoc test (Student-Newman-Keuls) was employed when appropriate. P-levels <0.05 were considered significant.

[6] = Solid form stability at 60° C. and 95% relative humidity; format: physicochemical; settings: relative humidity of 95%
[7] = Intrinsic dissolution rate (37C); format: physicochemical

Stability: solid form stable for ([6]; listed as γ): Solid form stable for >14 days at 60 °C
Intrinsic dissolution rate (37C) ([7]; listed as γ): 0.036 mg//cm^2/min
Molecule: Cc1cc(N2CCOCC2)cc(C)c1NC(=O)CC(C)(C)C [γ form, N-[2,6-Dimethyl-4-morpholin-4-yl-phenyl]-3,3-dimethyl-butyramide, γ form]

Stability: solid form stable for ([6]; listed as β): Solid form stable for >90 days at 60 °C
Intrinsic dissolution rate (37C) ([7]; listed as β): 0.026 mg//cm^2/min
Molecule: Cc1cc(N2CCOCC2)cc(C)c1NC(=O)CC(C)(C)C [β form, N-(2,6-Dimethyl-4-morpholin-4-yl-phenyl)-3,3-dimethyl-butyramide, β form]

The next lines start with the molecule.

Molecule: Lithium-chloride
Amphetamine antagonism ED50 ± std. dev. (Male Wistar rats [1]): 12 (1.7) mg/kg
Motility inhibition ED50 ± std. dev. (Male Wistar rats [2]): >40 mg/kg
Inhibition of baseline motility. ED50 (±S.D.) (Male NMRI mice [3]): >>40 mg/kg
Inhibition of amphetamine sensitised response. ED50 (±S.D.) (Male NMRI mice [4]): 34 (7.2) mg/kg

Molecule: Cc1cc2c(s1)Nc1ccccc1N=C2N1CCN(C)CC1 [Olanzapine, reference compound]
ED50 (Male Wistar rats [1]): 0.21 mg/kg
Immobility in % (±S.D.) (Male NMRI mice [5]; dose 0.31 mg/kg): 96%
Immobility in % (±S.D.) (Male NMRI mice [5]; dose 1.3 mg/kg): 95%
ED50 (Male NMRI mice [4]; Mus musculus): 0.11 mg/kg

Molecule: Cc1cc(N2CCOCC2)cc(C)c1NC(=O)CC(C)(C)C [α form, N-(2,6-Dimethyl-4-morpholin-4-yl-phenyl)-3,3-dimethyl-butyramide, α form]
Stability: solid form stable for ([6]; listed as α): Solid form stable for >90 days at 60 °C
Intrinsic dissolution rate (37C) ([7]; listed as α): 0.021 mg//cm^2/min
